Where a SMILES comes first, the peptide text is derived from it. The star is where a group is joined. Cbz = O=C(OCc1ccccc1)*; CH2F = FC*
Legend:
Colo205 xenograft tumor = Colo205 xenograft tumor model
Experimental: Arrows, protein application; asterisks, bortezomib application; symbols, mean of tumor volumes 95% confidence interval (CI), n=12 tumors/treatment group.
8-week-old female NMRI nu/nu mice (Janvier) were injected s.c. with 3×10^6 Colo205 cells in 100 μl PBS at left and right dorsal sides. Treatment started 6 days after tumor cell inoculation when tumors reached about 100 mm^3. […] On day 1, 3, 5 and 7 of treatment, mice received additionally 5 μg bortezomib in 100 μl PBS i.p. three hours before protein injection. The control groups received 100 μl PBS or 5 μg bortezomib at the same time intervals. […] The Tukey's test was applied for statistics.

[1] = test system: EGFR+ Huh-7 hepatocellular carcinoma cells; assay: EGFR-directed induction of cell death in Huh-7 cells, serial dilutions of protein, crystal violet; format: cell-based; settings: 250 ng/ml bortezomib, caspase inhibitors 10 μM, 16 h
Experimental: (§1) After 16 h, cell viability was determined using MTT staining (Colo 205) or crystal violet staining (Huh-7) and data were normalized using bortezomib-treated cells as control (mean SEM, n=3). (B) 1×10^4 Colo205 cells per well were grown in 96-well plates using medium with 0.1% FCS. […] (C) 1×10^4 Huh-7 cells per well were grown in 96-well plates and treated with 20 ng/ml bortezomib or with a combination of bortezomib and 10 μM zVADfmk.
After 16 h, cell viability was determined using crystal violet staining.
(§2) As a positive control, cells were killed with 0.25% Triton X-100. Cell death assays with Huh-7 and HepG2 cells were performed in the absence (FIG. 6, Jurkat cells) or presence of Bortezomib (FIG. 7, Huh-7: 250 ng/ml, FIG. 6, HepG2: 500 ng/ml, FIG. 18, Huh-7: 250 ng/ml), Selleck Chemicals, Houston, Tex.). Bortezomib was added 30 min prior incubation with the proapoptotic ligands to sensitize cells for the induction of cell death (FIGS. 6, 7). Alternatively, cells were preincubated for 30 min with the indicated concentrations of TRAIL fusion proteins followed by addition of serial dilutions of Bortezomib (FIG. 8). […] After 16 h incubation, cell viability was determined either by crystal violet staining (Huh-7, HepG2) or the MTT method (Jurkat) (Wuest et al., 2002). In the latter case a lysis buffer consisting of 15% SDS in DMF/H2O (1:1), pH 4.5 (with […]) acetic acid) was used.

Colo205 cells = assay: Caspase dependence of cell death in Colo205 cells, MTT; format: cell-based; settings: 25 ng/ml bortezomib, caspase inhibitors 20 μM, 16 h
Experimental: as §1

[2] = test system: Huh-7 hepatocellular carcinoma cells; assay: Cell death in Huh-7 cells, constant protein concentration, serial dilutions of Bortezomib; format: cell-based; settings: protein concentration of 1 nM and above
Experimental: Results from three independent experiments are shown (mean±S.E.M.).
as §2

Jurkat cells = assay: Target-independent induction of cell death, Jurkat, MTT assay; format: cell-based; settings: not sensitized; SEQ ID NO: 102 compared to KillerTRAIL
Experimental: (§3) Cell viability was determined using crystal violet staining. Results from four independent experiments are shown (mean±S.E.M.). (B) Jurkat cells (1×10^5/well) were used for a similar experiment as described in (A). Jurkat cells were not sensitized. Results from three independent experiments are shown (mean±S.E.M.). Viability of Jurkat cells was determined using the MTT assay.
as §2

[3] = test system: EGFR low/negative HepG2 cells; assay: Target-independent induction of cell death, HepG2, crystal violet; format: cell-based; settings: comparator named in value
Experimental: as §3, §2

[4] = 8 daily i.p. injections of 0.45 nmol + bortezomib every second day

Molecule | block of TRAIL fusion protein-induced cell death by inhibitor [1] | block of TRAIL fusion protein-induced cell death by inhibitor (Colo205 cells) | also measured
CC(C)C[C@H](NC(=O)[C@H](Cc1ccccc1)NC(=O)c1cnccn1)B(O)O [Bortezomib] | – | – | effect on tumor growth (Colo205 xenograft tumor; bortezomib by itself, 5 μg i.p. on day 1, 3, 5 and 7): did not interfere with progressive tumor growth
CN1C(=O)C(Cc2c[nH]c3ccccc23)NC1=S (stereo not drawn) [necrostatin-1] | failure of necrostatin-1 to prevent or reduce cell death | failure of necrostatin-1 to prevent or reduce cell death | –
COC(=O)CC[C@H](NC(=O)[C@H](CC(=O)OC)NC(=O)OCc1ccccc1)C(=O)N[C@H](C(=O)N[C@@H](CC(=O)OC)C(=O)CF)C(C)C [zDEVDfmk] | nearly complete block of cell death | nearly complete block of cell death | –
COC(=O)C[C@H](NC(=O)[C@H](C)NC(=O)[C@@H](NC(=O)OCc1ccccc1)C(C)C)C(=O)CF [zVADfmk] (Cbz-Val-Ala-Asp(OMe)-CH2F) | nearly complete block of cell death | nearly complete block of cell death | –
SEQ ID NO: 104: single chain TRAIL, three copies of TRAIL 95-281 linked by (GGGS)2 linkers, N-terminal FLAG tag, no component B (protein, scTRAIL fusion protein, single chain TRAIL, three copies of TRAIL 95-281 linked by (GGGS)2 linkers, N-terminal FLAG tag, no component B) TSEETISTVQEKQQNISPLVRERGPQRVAAHITGTRGRSNTLSSPNSKNEKALGRKINSWESSRSGHSFLSNLHLRNGELVIHEKGFYYIYSQTYFRFQEEIKENTKNDKQMVQYIYKYTSYPDPILLMKSARNSCWSKDAEYGLYSIYQGGIFELKENDRIFVSVTNEHLIDMDHEASFFGAFLVGGGGSGGGSTSEETISTVQEKQQNISPLVRERGPQRVAAHITGTRGRSNTLSSPNSKNEKALGRKINSWESSRSGHSFLSNLHLRNGELVIHEKGFYYIYSQTYFRFQEEIKENTKNDKQMVQYIYKYTSYPDPILLMKSARNSCWSKDAEYGLYSIYQGGIFELKENDRIFVSVTNEHLIDMDHEASFFGAFLVGGGGSGGGSTSEETISTVQEKQQNISPLVRERGPQRVAAHITGTRGRSNTLSSPNSKNEKALGRKINSWESSRSGHSFLSNLHLRNGELVIHEKGFYYIYSQTYFRFQEEIKENTKNDKQMVQYIYKYTSYPDPILLMKSARNSCWSKDAEYGLYSIYQGGIFELKENDRIFVSVTNEHLIDMDHEASFFGAFLVG | – | – | induction of apoptosis when sensitized with Bortezomib [2]: nearly equally efficient in induction of complete apoptosis; effect on tumor growth (Colo205 xenograft tumor; [4]): delayed tumor growth; regression of tumors (Colo205 xenograft tumor; [4]): did not induce regression of tumors; apoptosis-inducing activity on Jurkat cells (Jurkat cells): no reactivity
KillerTRAIL: commercially available highly active TRAIL preparation (Enzo Lifesciences / Axxora) (protein, UniProt P50591 39-281, looked up, extracellular domain) extracellular domain: TNELKQMQDKYSKSGIACFLKEDDSYWDPNDEESMNSPCWQVKWQLRQLVRKMILRTSEETISTVQEKQQNISPLVRERGPQRVAAHITGTRGRSNTLSSPNSKNEKALGRKINSWESSRSGHSFLSNLHLRNGELVIHEKGFYYIYSQTYFRFQEEIKENTKNDKQMVQYIYKYTSYPDPILLMKSARNSCWSKDAEYGLYSIYQGGIFELKENDRIFVSVTNEHLIDMDHEASFFGAFLVG | – | – | bioactivity on target negative cells, comparison in words [3]: comparable with the activity of SEQ ID NO: 96
